{
  "source": "BindingDB's records for doi:10.1046/j.1471-4159.1994.63020456.x",
  "about": "(Syntex Discovery Research, 1994)",
  "note": "pKi: −log10 of the molar value.",
  "data": [
    {"molecular_target": "5-hydroxytryptamine receptor 7 (Cavia porcellus, UniProt P50407)", "sequence (P50407 whole entry)": "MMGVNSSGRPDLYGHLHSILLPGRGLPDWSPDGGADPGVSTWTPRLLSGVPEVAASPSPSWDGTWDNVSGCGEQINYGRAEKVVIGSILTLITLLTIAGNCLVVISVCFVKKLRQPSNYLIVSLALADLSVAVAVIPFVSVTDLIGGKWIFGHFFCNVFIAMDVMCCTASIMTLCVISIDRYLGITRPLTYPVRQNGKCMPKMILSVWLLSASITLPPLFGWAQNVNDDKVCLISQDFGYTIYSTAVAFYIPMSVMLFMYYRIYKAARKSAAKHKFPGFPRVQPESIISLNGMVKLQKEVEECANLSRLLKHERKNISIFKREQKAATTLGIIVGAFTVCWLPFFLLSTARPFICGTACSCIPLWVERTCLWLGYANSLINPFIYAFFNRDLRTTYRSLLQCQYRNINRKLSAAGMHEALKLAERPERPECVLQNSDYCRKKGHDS", "values": [
      {"smiles": "CC[C@@H](CO)NC(=O)[C@@H]1C=C2c3cccc4c3c(cn4C)C[C@H]2N(C)C1", "pKi": 7.40},
      {"smiles": "CN(C)CCc1c[nH]c2ccc(O)cc12", "note": "[3-[2-(dimethylamino)ethyl]indol-5-ol]", "pKi": 7.70},
      {"smiles": "COc1ccc2[nH]cc(CCN)c2c1", "note": "[tryptamine, 5-Methoxy]", "pKi": 9.00},
      {"smiles": "CNS(=O)(=O)Cc1ccc2[nH]cc(CCN(C)C)c2c1", "note": "[Sumax]", "pKi": 6.60},
      {"smiles": "NCCc1c[nH]c2ccc(O)cc12", "note": "[[3H]-5-HT]", "pKi": 9.00},
      {"smiles": "O=C(CCCN1CCC2(CC1)C(=O)NCN2c1ccccc1)c1ccc(F)cc1", "note": "[8-[4-(4-fluorophenyl)-4-oxidanylidene-butyl]-1-phenyl-1,3,8-triazaspiro[4.5]decan-4-one]", "pKi": 7.00},
      {"smiles": "CCCN(CCC)C1CCc2cccc(O)c2C1", "note": "(configuration not stated)", "pKi": 7.30}
    ]}
  ]
}
